Here are results for 13 molecules from patent US20200171030A1, “DUAL INHIBITORS OF ALK5 AND P38A MAP KINASE” (INTEGRAL BIOSCIENCES PRIVATE LIMITED, priority 2018, published 2020).

Assay [1] concerns MIA PaCa-2. Kind of assay: Cell viability assay (resazurin, 96 hr) in MIA PaCa-2. The class given is cell-based. The conditions noted are these: Homo sapiens; MIA PaCa-2 pancreatic cell line, 96 hr exposure; read-out: MiaPaCa-2_Cell Viability_IC50. As to the method:
(§1) Cell Viability Assay in MIA PaCa-2 and Panc-1
(§2) MIA PaCa-2 (ATCC® CRL-1420™) and Panc-1 (CRL-1469™), both pancreatic cell lines were seeded in their respective medium (DMEM, Cat #10569044 with 10% FBS, Cat #16000044; Gibco for Panc-1 and an additional 2.5% Horse Serum, Cat #16050122; Gibco for MIA PaCa-2) at a cell count of 3000 cells per 100 μl per well in a 96 well edge plate (167425; ThermoFisher). Cells were allowed to grow at 37° C. for 24 hr in 5% CO2 (culture conditions) in a Nuaire incubator (humidified). Serially diluted compounds (100 μl) were added to the culture plate 24 hr later and the cultures (MIA PaCa-2 and Panc-1) were further incubated in culture conditions for 96 hr. Experiment was terminated at the completion of 96 hr exposure to the drug by replacing the medium with 100 μl of 1 mM of resazurin (R7017; Sigma) prepared in culture medium and the plates were further incubated in culture conditions for 4 hr. Fluorescence was then measured using a multimodal plate reader (Biotek Synergy Neo) at an excitation wavelength of 535 nm and emission wavelength of 590 nm to obtain relative fluorescence units. Data analysis was done by subtracting the background fluorescence (only medium blank) value from each reading and then normalizing with the vehicle control (DMSO treated cells) to obtain percent survival/proliferation. Percent survival at different doses was used to calculate IC50 by fitting the curve to the “four-parameter variable slope logistic model” using Prism Graph Pad.

Assay [2] deals with Panc-1. Briefly: Cell viability assay (resazurin, 96 hr) in Panc-1. Type of assay: cell-based. The conditions noted are these: Homo sapiens; Panc-1 pancreatic cell line, 96 hr exposure; read-out: Panc-1_Cell Viability_IC50. As for the experimental part: as §1, §2
Assay [3] concerns the target T1, TGFBR1 (ALK5) (Homo sapiens, UniProt P36897).
T1 sequence (P36897 34-503): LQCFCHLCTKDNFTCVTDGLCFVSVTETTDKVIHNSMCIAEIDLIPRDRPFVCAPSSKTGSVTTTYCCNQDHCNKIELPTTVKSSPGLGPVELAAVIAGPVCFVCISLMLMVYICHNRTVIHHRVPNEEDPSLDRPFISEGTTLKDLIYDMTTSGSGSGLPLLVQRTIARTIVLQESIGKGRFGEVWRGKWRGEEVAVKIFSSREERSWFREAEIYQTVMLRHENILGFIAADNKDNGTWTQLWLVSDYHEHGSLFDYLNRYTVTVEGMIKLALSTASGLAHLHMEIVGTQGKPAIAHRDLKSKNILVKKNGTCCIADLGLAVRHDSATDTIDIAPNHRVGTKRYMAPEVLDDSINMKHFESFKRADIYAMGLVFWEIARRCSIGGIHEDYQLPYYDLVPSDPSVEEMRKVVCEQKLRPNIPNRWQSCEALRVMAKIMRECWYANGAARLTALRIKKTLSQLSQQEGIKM
Briefly: ALK5 kinase assay (LanthaScreen Terbium labeled TR-FRET). The class given is biochemical. The conditions noted are these: for IC50: read-out: ALK5 IC50; for inhibition at 0.1 µM: 100 nM concentration of compound, read-out: Enzyme Activity TGFBR1 (ALK5) % Inhibition at 100 nM. As to the method: ALK5 Kinase Assay for IC50 Determination:
IC50 values of compounds against TGFβ kinase was determined by LanthaScreen™ Terbium Labeled TR-FRET assay. Kinase assays were performed in IX kinase buffer (# PV6135, Invitrogen, Life Technologies Grand Island, N.Y.) where total reaction volume was 10 μL in low-volume 384-well plates (#4511,Corning). Serially diluted compounds (3-fold) were incubated with TGFβ kinase (6 nM) for 10 min, following which a mixture of ATP (10 μM) (# A1852, Sigma, St-Louis, Mo.) and fluorescent-PolyGT substrate (200 nM) (# PV3610, Invitrogen, Life Technologies Grand Island, N.Y.) was added and incubated in dark at room temperature for 1 h. After 1 h, 10 μL stop solution containing Terbium labeled antibody (4 nM) (# PV3529, Invitrogen, Life Technologies Grand Island, N.Y.) and EDTA (# E5134, Sigma, St-Louis, Mo.) (20 mM) in TR-FRET dilution buffer (# PV3574, Invitrogen, Life Technologies Grand Island, N.Y.) was added. Readings were taken in a Synergy Neo Plate reader (BioTek, Winooski) at single excitation of 340 nm and Dual emission at 495 nm and 520 nm respectively.
The % activity of test samples was calculated as (Sample−Min)×100/(Max−Min). [Max: DMSO control, complete reaction with enzyme with DMSO and Min: No enzyme with DMSO]. Percent inhibition (100-% activity) was fitted to the “four-parameter logistic model” in XLfit for determination of IC50 values.

Assay [4] addresses T2, MAPK14/p38α kinase (Homo sapiens, UniProt Q16539).
T2 construct: purchased ThermoFisher PV3304
Briefly: MAPK14/p38α kinase assay (LanthaScreen TR-FRET). The class given is biochemical. Particulars: 100 nM concentration of compound. As to the method:
MAPK14/p38α Kinase Assay for IC50 Determination:
IC50 values of compounds against MAPK14/P38α kinase were determined by Lanthascreen based TR-FRET assay. Kinase reactions were performed in a 10 μL volume in low-volume 384-well plates. The concentration of substrate was maintained at 400 nM in the assay, and the kinase reaction buffer (1×; Cat # PV3189, ThermoFisher) consisted of 50 mM HEPES pH 7.5, 0.01% BRIJ-35, 10 mM MgCl2, and 1 mM EGTA. Serially diluted compounds (3-fold) in DMSO (0.5% in final reaction) were incubated with cocktail of MAPK14/p38α kinase (20 ng/ml; Cat # PV3304, ThermoFisher), Substrate GFP-ATF2 (19-96), (0.4 μM; Cat # PV4445, ThermoFisher), ATP (90 μM; Cat # PV3227, ThermoFisher) and buffer. Kinase reactions were allowed to proceed for 1 hour at room temperature before EDTA (10 mM; Cat # P2825, ThermoFisher) and LanthaScreen™ Tb-antipATF2 (pThr71) Antibody (2 nM; Cat # PV4451, ThermoFisher) in TR-FRET dilution buffer (IX; Cat # PV3574, ThermoFisher) were added. The plate was allowed to incubate at room temperature for 30 minutes before being read on a BMG Pherastar plate reader using the LanthaScreen™ filter block for LanthaScreen™ TR-FRET.
The resulting TR-FRET emission ratio was plotted against the concentration of inhibitor, and the data was fit to a sigmoidal dose-response curve with a variable slope. The IC50 for the inhibitor was calculated from the curve.

Setting [5] is: read-out: Enzyme Activity MAPK14 (p38 alpha) % Inhibition at 100 nM.

Structures can show the parent of a compound that is named as a salt. Where two headings read alike, the source gives them in different places.

T2 sequence (Q16539 whole entry): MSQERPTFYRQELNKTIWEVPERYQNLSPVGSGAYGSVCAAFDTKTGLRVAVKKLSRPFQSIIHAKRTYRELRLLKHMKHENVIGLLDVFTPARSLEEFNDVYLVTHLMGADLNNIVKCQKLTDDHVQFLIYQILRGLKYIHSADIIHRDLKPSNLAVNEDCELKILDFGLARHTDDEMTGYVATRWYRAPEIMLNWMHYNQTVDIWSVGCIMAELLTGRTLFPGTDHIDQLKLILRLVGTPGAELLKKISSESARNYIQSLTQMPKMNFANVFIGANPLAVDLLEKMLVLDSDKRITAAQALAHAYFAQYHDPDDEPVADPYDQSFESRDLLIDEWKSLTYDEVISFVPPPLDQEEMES

Take `CC(C)c1cnc(-c2ccc(F)cc2)nc1Nc1ccnc2[nH]cc(N3CCOCC3C)c12` (stereo not drawn) [Compound No. 14, N-(2-(4-fluorophenyl)-5-isopropylpyrimidin-4-yl)-3-(3-methylmorpholino)-1H-pyrrolo [2,3-b] pyridin-4-amine hydrochloride]: the results for the IC50 in assay [1], in assay [2] and in assay [3] (Table 5) were 11.1 µM, 11.2 µM and 3.71 µM, respectively.

As to `CC(C)c1cnc(-c2ccc(F)cc2)nc1Nc1ccnc2[nH]cc(N3CCC(C(N)=O)CC3)c12` [Compound No. 12, 1-(4-((2-(4-fluorophenyl)-5-isopropylpyrimidin-4-yl)amino)-1H-pyrrolo[2,3-b]pyridin-3-yl)piperidine-4-carboxamide formic acid], the IC50 is 1.78 µM in assay [1], 2.6 µM in assay [2] and 1.17 µM in assay [3] (Table 4). The inhibition at 0.1 µM in assay [4] (Table 4, read-out: Enzyme Activity MAPK14 (p38alpha) % Inh at 100 nM) was 37%.

As to `CC(C)c1cnc(-c2ccc(F)cc2)nc1Nc1ccnc2[nH]cc(N3CCNCC3C)c12` (stereo not drawn) [Compound No. 4, N-(2-(4-fluorophenyl)-5-isopropylpyrimidin-4-yl)-3-(2-methylpiperazin-1-yl)-1H-pyrrolo[2,3-b]pyridin-4-amine hydrochloride], the IC50 in assay [1] was 1.54 µM; in assay [2], 1.88 µM. Also, the inhibition at 0.1 µM in assay [3] was 94%; in assay [4] (setting [5]), 72%.

Consider `CC(C)c1cnc(-c2ccc(F)cc2)nc1Nc1ccnc2[nH]cc(N3CCNCC3)c12` [Compound No. 1, N-(2-(4-fluorophenyl)-5-isopropylpyrimidin-4-yl)-3-(piperazin-1-yl)-1H-pyrrolo [2,3-b] pyridin-4-amine hydrochloride], for which the IC50 in assay [1] came to 1.63 µM; in assay [2], 2.31 µM. Besides, the figures for the inhibition at 0.1 µM in assay [3] and in assay [4] (setting [5]) were 99% and 61%, respectively.

As for `CC(C)c1cnc(-c2ccc(F)cc2)nc1Nc1ccnc2[nH]cc(C(=O)C(=O)N3CCOCC3)c12` [Compound No. 22, 1-(4-(2-(4-fluorophenyl)-5-isopropylpyrimidin-4-ylamino)-1H-pyrrolo [2,3-b]pyridin-3-yl)-2-morpholinoethane-1,2-dione hydrochloride], the IC50 is above 30 µM in assay [1], 14.2 µM in assay [2] and 3.95 µM in assay [3] (Table 5).

In the case of `COc1ccc(-c2ncc(C(C)C)c(Nc3ccnc4[nH]cc(C(=O)C(N)=O)c34)n2)cc1` [Compound No. 25, 2-(4-((5-isopropyl-2-(4-methoxyphenyl)pyrimidin-4-yl)amino)-1H-pyrrolo[2,3-b]pyridin-3-yl)-2-oxoacetamide hydrochloride], the IC50 in assay [1] is above 30 µM; in assay [2] it was above 30 µM; in assay [3] (Table 5) it was 2.57 µM.

For the molecule `CC(C)c1cnc(-c2ccc(F)cc2)nc1Nc1ccnc2[nH]cc(C(=O)C(=O)N3CCN(C)CC3)c12` [Compound No. 24, 1-(4-(2-(4-fluorophenyl)-5-isopropylpyrimidin-4-ylamino)-1H-pyrrolo [2,3-b]pyridin-3-yl)-2-(4-methylpiperazin-1-yl) ethane-1,2-dione hydrochloride], the values for the IC50 in assay [1], in assay [2] and in assay [3] (Table 5) were 0.77 µM, above 30 µM and 1.5 µM, respectively.

As to `CNC(=O)C(=O)c1c[nH]c2nccc(Nc3nc(-c4ccc(F)cc4)ncc3C(C)C)c12` [Compound No. 29, 2-(4-((2-(4-fluorophenyl)-5-isopropylpyrimidin-4-yl)amino)-1H-pyrrolo[2,3-b]pyridin-3-yl)-N-methyl-2-oxoacetamide hydrochloride], the IC50 in assay [1] came out at 23 µM; in assay [2] it was 26 µM; in assay [3] (Table 5) it was 2.77 µM.

With `CC(C)c1cnc(-c2ccc(F)cc2)nc1Nc1ccnc2[nH]cc(N3CCC(N)CC3)c12` [Compound No. 15, 3-(4-aminopiperidin-1-yl)-N-(2-(4-fluorophenyl)-5-isopropylpyrimidin-4-yl)-1H-pyrrolo[2,3-b]pyridin-4-amine hydrochloride], the IC50 in assay [1] stood at 5.5 µM; in assay [2], 2.96 µM; in assay [3] (Table 5), 0.245 µM.

Regarding `CC(C)c1cnc(-c2ccc(F)cc2)nc1Nc1ccnc2[nH]cc(C(=O)C(=O)N(C)C)c12` [Compound No. 16, 2-(4-((2-(4-fluorophenyl)-5-isopropylpyrimidin-4-yl)amino)-1H-pyrrolo[2,3-b]pyridin-3-yl)-N,N-dimethyl-2-oxoacetamide], the IC50 came out at 10.2 µM in assay [1], 17.1 µM in assay [2] and 1.92 µM in assay [3] (Table 5).

Consider `CNC(=O)C(=O)c1c[nH]c2nccc(Nc3cc(-c4ccc(F)cc4)ncc3C(C)C)c12` [Compound No. 21, 2-(4-((2-(4-fluorophenyl)-5-isopropylpyridin-4-yl)amino)-1H-pyrrolo[2,3-b]pyridin-3-yl)-N-methyl-2-oxoacetamide hydrochloride], for which the IC50 was found to be 10.7 µM in assay [1], 12.7 µM in assay [2] and 0.574 µM in assay [3] (Table 5).

In the case of `CCCCNC(=O)C(=O)c1c[nH]c2nccc(Nc3nc(-c4ccc(F)cc4)ncc3C(C)C)c12` [Compound No. 20, N-butyl-2-(4-(2-(4-fluorophenyl)-5-isopropylpyrimidin-4-ylamino)-1H-pyrrolo [2,3-b]pyridin-3-yl)-2-oxoacetamide hydrochloride], the IC50 in assay [1] is above 30 µM; in assay [2], above 30 µM; in assay [3] (Table 5), above 5 µM.

`CC(C)c1cnc(-c2ccc(F)cc2)nc1Nc1ccnc2[nH]cc(C3(O)CCNCC3)c12` [Compound No. 13, 4-(4-((2-(4-fluorophenyl)-5-isopropylpyrimidin-4-yl)amino)-1H-pyrrolo[2,3-b]pyridin-3-yl)piperidin-4-ol hydrochloride]: the IC50 in assay [1] is 10.9 µM; in assay [2], 17.9 µM; in assay [3] (Table 5) it was 0.108 µM.
